# In patent publication US20150342897A1, “POLYPEPTIDE LOADED POCA NANOPARTICLES FOR ORAL ADMINISTRATION” (Glaxo Group Limited, priority 2012, published 2015):
# Assay: Reduction in blood glucose levels after single i.v. dose
# Format: in vivo, C57BL/6 mice
# Details: single i.v. dose equivalent to 1 μg/100 μl
# Procedure: C57BL/6 mice were given a single i.v. dose of exendin-4 loaded POCA nanoparticles (equivalent to 2 μg peptide/100 μl), non encapsulated (free) exendin-4 peptide (equivalent to 1 μg/100 μl) or saline as a control. In order to monitor blood glucose levels, 2-3 μl blood samples were taken from the peripheral tail vein of each animal prior to dosing and again at 0.5, 1, 2, 3, 4 and 8 hours post dose. Each sample was analysed using a hand held glucose monitor (BAYER […] BREEZE 2TM).
substance,measurement,setting,value
exendin-4 [non encapsulated exendin-4],reduction in blood glucose levels from baseline,"2 hours post dose, FIG. 3",~30%
same,blood glucose levels at 8 hours post dose,8 hours post dose,returned to baseline
